The values that follow are results of earlier work, collected in publication PMC10716780, “The multistep oxidation of cholesterol to pregnenolone by human cytochrome P450 11A1 is highly processive” (The Journal of Biological Chemistry, 2023).

The data set relates to human P450 11A1. More on the design: method as in PMID 33271253. Particulars: surface plasmon resonance ref 46; cited from earlier work.

As to `CC(C)CCC[C@@H](C)[C@H]1CC[C@H]2[C@@H]3CC=C4C[C@@H](O)CC[C@]4(C)[C@H]3CC[C@]12C` [Cholesterol], the “decrease in Kd of P450 11A1-Adx complex in the presence of cholesterol” value is recorded as about 3 fold.
